Measurements from US8957083B2, “Spiro-amino-imidazolone and spiro-amino-dihydro-pyrimidinone compounds as beta-secretase modulators and methods of use” (Amgen Inc., priority 2010, dated 2015).
Read-outs that look alike come from different tables or passages of the source.

Key:
[1] = biological target: BACE 1 (Beta Secretase enzyme) (Homo sapiens (Human), UniProt P56817); assay: In vitro enzymatic BACE FRET assay; assay type: biochemical; settings: enzyme 0.2 nM, FRET substrate 50 nM, pH 4.2
Method: In Vitro Enzymatic BACE FRET (Fluorescence Resonance Energy Transfer) Assay (Enzyme Assay Data in the Example Table I)
The assay buffer used in this screen is 0.05 M acetate, pH 4.2, 10% DMSO final, 100 uM genapol (which is a nonionic detergent, below its Critical Micelle Concentration). […] This assay is effectively started by the addition of FRET substrate (50 nM) and the combination is incubated for one hour. The FRET assay is terminated with by addition of Tris buffer, which raises the pH to neutrality, and the fluorescence is determined. The FRET substrate is a peptide with commercially available fluorophore and quencher, on opposite sides of the BACE cleavage site. Proteolytic cleavage of the FRET substrate releases quenching of fluorescence (excitation […] and […]).

[2] = test system: Aβ40 in conditioned medium of cells expressing amyloid precursor protein; assay: In vitro BACE cell-based assay (HEK cell assay), Aβ40 sandwich ELISA; settings: Aβ40 in supernatant after 24 h incubation
Method: In Vitro BACE Cell-Based Assay
The cell-based assay measures inhibition or reduction of Aβ40 in conditioned medium of test compound treated cells expressing amyloid precursor protein.
Cells stably expressing Amyloid Precursor Protein (APP) were plated at a density of 40K cells/well in 96 well plates (Costar). The cells were cultivated for 24 hours at 37° C. and 5% CO2 in DMEM supplemented with 10% FBS. The test compounds were then added to cells in 10-point dose response concentrations with the starting concentration being either 100 μM or 10 μM. The compounds were diluted from stock solutions in DMSO and the final DMSO concentration of the test compounds on cells was 0.1%. After 24 h of incubation with the test compounds the supernatant conditioned media was collected and the Aβ 40 levels were determined using a sandwich ELISA. The IC50 of the compound was calculated from the percent of control or percent inhibition of Aβ 40 as a function of the concentration of the test compound.
The sandwich ELISA to detect Aβ 40 was performed in 96 well microtiter plates, which were pre-treated with goat anti-rabbit IgG (Pierce). The capture and detecting antibody pair that were used to detect Aβ 40 from cell supernatants were affinity purified pAb40 (Biosource) and biotinylated 6E10 (Signet Labs Inc.), respectively. The optimal concentration for the pAb40 antibody was 3 μg/ml in Superblock/TBS (Pierce) that was supplemented with 0.05% Tween 20 (Sigma).
Cellular supernatants were incubated with the capture antibody for 3 h at 4° C., followed by 3 wash steps in TBS-tween (0.05%). The detecting antibody incubation was for 2 h at 4° C., again followed by the wash steps as described previously. The final readout of the ELISA is Time-Resolved Fluorescence (counts per minute) using Delfia reagents Streptavidin-Europium and Enhancement solutions (Perkin Elmer) and the Victor 2 multilabel counter (Perkin Elmer).

Cathepsin D (Cat D) = Cathepsin D (Cat D) (Homo sapiens (Human), UniProt P07339); assay: In vitro enzymatic Cathepsin D (Cat D) FRET assay; assay type: biochemical; settings: Cat D enzyme 9 nM, FRET substrate 20 nM, pH 3.5
Method: In Vitro Enzymatic Cathepsin D (Cat D) FRET (Fluorescence Resonance Energy Transfer) Assay
Recombinant Cat D was expressed in CHO cells. The assay buffer for CathepsinD is 0.05 M citrate pH 3.5, 10% DMSO final, 5 mM CHAPS. The Cat D enzyme (9 nM) is pre-incubated for one hour with inhibitors, typically in about luL of DMSO according to a serial dilution, is added thereto. The assays are effectively started by the addition of different FRET substrates (20 nM for Cat D) and the combination is incubated for one hour. The FRET assay is terminated with by addition of Tris buffer, which raises the pH to neutrality, and the fluorescence is determined. The FRET substrate is a peptide with commercially available fluorophore and quencher, on opposite sides of the BACE cleavage site. The Cat D substrate peptide sequence is based on sequence #1 of Table 1 from Gulnik et al. FEB S Letters v413 p 379-384 1997. Proteolytic cleavage of the FRET substrate releases quenching of fluorescence (Cat D excitation 500 nm and emission 580 nm).
Where available, the in-vitro Cat D FRET assay data for each of the Examples, conducted by the first procedure, is provided.

Aβ in lumbar CSF = settings: cited from earlier work
[3] = test system: pigment epithelium of the rat's eye; settings: higher compound dose given for three months; cited from earlier work
Aβ = settings: orally available; cited from earlier work
[4] = average IC50, read-out: BACE 1 FRET assay
[5] = Homo sapiens, HEK293, 24 h, average IC50, read-out: HEK cell assay
[6] = class symbols, read-out: BACE 1 FRET assay (IC50 class)
[7] = Homo sapiens, HEK293, 24 h, class symbols, read-out: HEK cell assay (IC50 class)

Sequence of BACE 1 (Beta Secretase enzyme) (P56817 46-501): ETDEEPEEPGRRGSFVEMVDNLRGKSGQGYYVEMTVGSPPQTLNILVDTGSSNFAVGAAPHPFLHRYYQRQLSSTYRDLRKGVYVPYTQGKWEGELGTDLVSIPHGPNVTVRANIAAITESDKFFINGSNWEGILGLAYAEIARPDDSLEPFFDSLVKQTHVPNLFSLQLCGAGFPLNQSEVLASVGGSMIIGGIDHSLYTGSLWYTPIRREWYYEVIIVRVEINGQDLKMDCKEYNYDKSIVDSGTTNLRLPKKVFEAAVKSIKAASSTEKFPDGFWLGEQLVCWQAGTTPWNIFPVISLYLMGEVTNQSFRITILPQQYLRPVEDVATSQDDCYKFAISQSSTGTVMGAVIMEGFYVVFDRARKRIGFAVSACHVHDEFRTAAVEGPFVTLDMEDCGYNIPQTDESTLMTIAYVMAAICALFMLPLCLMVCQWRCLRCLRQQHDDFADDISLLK
Sequence of Cathepsin D (Cat D) (P07339 65-412, species assumed): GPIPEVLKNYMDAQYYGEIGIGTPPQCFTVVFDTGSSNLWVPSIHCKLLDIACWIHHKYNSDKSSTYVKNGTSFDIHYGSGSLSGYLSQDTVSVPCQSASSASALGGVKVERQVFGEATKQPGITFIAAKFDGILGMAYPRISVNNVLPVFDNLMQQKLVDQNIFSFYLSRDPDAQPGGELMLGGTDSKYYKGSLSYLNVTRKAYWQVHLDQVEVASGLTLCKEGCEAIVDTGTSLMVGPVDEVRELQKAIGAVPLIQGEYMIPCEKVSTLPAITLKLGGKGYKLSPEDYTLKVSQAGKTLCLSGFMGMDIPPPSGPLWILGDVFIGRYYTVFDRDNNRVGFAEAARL

Row | Structure (SMILES) | IC50 [1, 4] | IC50 [2, 5] | other results
1 | COc1ccc2c(c1)C1(N=C(N)N(C)C1=O)c1cc(NC(=O)c3ccc(Cl)cn3)ccc1O2 (stereo not shown) [Example 40, N-(2-amino-2′-methoxy-1-methyl-5-oxo-1,5-dihydrospiro[imidazole-4,9′-xanthen]-7′-yl)-5-chloropicolinamide] | 6.7 nM | 39 nM | IC50 (Cathepsin D (Cat D)): 7.4 µM
2 | CC#Cc1cncc(-c2ccc3c(c2)[C@]2(N=C(N)N(C)C2=O)c2cc(C4=CCOCC4)cc(F)c2O3)c1 [Example 32, (4S)-2-amino-2′-(3,6-dihydro-2H-pyran-4-yl)-4′-fluoro-1-methyl-7′-(5-(1-propyn-1-yl)-3-pyridinyl)spiro[imidazole-4,9′-xanthen]-5(1H)-one] | 0.5 nM |  | IC50 ([2]; average IC50, read-out: HEK cell assay): 7.6 nM
3 | CN1C(=O)C[C@]2(N=C1N)c1cc(-c3cccnc3F)ccc1Oc1cnc(C3=CCCOC3)cc12 [Example 24, (S)-2′-amino-3-(5,6-dihydro-2H-pyran-3-yl)-7-(2-fluoropyridin-3-yl)-1′-methyl-1′H-spiro[chromeno[2,3-c]pyridine-5,4′-pyrimidin]-6′(5′H)-one] | 12.1 nM | 52.3 nM | 
4 | CN1C(=O)C[C@]2(N=C1N)c1cc(-c3cccnc3F)ccc1Oc1c2cc(C2=CCOC(C)(C)C2)nc1F [Example 27, (S)-2′-amino-3-(2,2-dimethyl-3,6-dihydro-2H-pyran-4-yl)-1-fluoro-7-(2-fluoropyridin-3-yl)-1′-methyl-1′H-spiro[chromeno[2,3-c]pyridine-5,4′-pyrimidin]-6′(5′H)-one] | 0.7 nM | 5 nM | 
5 | CN1C(=O)C[C@]2(N=C1N)c1cc(-c3cccnc3F)ccc1Oc1c2cc(C2CCOC(C)(C)C2)nc1F (stereo partly drawn) [Example 28, (4′S)-2′-amino-3-(2,2-dimethyltetrahydro-2H-pyran-4-yl)-1-fluoro-7-(2-fluoropyridin-3-yl)-1′-methyl-1′H-spiro[chromeno[2,3-c]pyridine-5,4′-pyrimidin]-6′(5′H)-one] | 2 nM | 2.2 nM | 
6 | CN1C(=O)CC2(N=C1N)c1cc(Br)ccc1Oc1c2cc(Cl)nc1F (stereo not shown) [Example 11, 2′-amino-7-bromo-3-chloro-1-fluoro-1′-methyl-1′H-spiro[chromeno[2,3-c]pyridine-5,4′-pyrimidin]-6′(5′H)-one] |  |  | IC50 [1, 6]: > 1000 nM; IC50 [2, 7]: > 1000 nM
7 | CN1C(=O)C[C@@]2(N=C1N)c1cc(-c3cccnc3F)ccc1Oc1cnc(C3=CCOCC3)cc12 [Example 23, (R)-2′-amino-3-(3,6-dihydro-2H-pyran-4-yl)-7-(2-fluoropyridin-3-yl)-1′-methyl-1′H-spiro[chromeno[2,3-c]pyridine-5,4′-pyrimidin]-6′(5′H)-one] | 1750 nM | 1680 nM | 
8 | CC#Cc1cncc(-c2ccc3c(c2)[C@@]2(N=C(N)N(C)C2=O)c2cc(C4=CCOCC4)cc(F)c2O3)c1 [Example 31, (4R)-2-amino-2′-(3,6-dihydro-2H-pyran-4-yl)-4′-fluoro-1-methyl-7′-(5-(1-propyn-1-yl)-3-pyridinyl)spiro[imidazole-4,9′-xanthen]-5(1H)-one] | 179 nM | 4410 nM | 
9 | CN1C(=N)N[C@]2(CC1=O)c1cc(Br)ccc1Oc1cnc(Cl)cc12 [Example 20-B, (R)-7-bromo-3-chloro-2′-imino-1′-methyl-2′,3′-dihydro-1′H-spiro[chromeno[2,3-c]pyridine-5,4′-pyrimidin]-6′(5′H)-one] |  |  | IC50 [1, 6]: > 1000 nM; IC50 [2, 7]: > 1000 nM
10 | CN1C(=O)[C@]2(N=C1N)c1cc(C3=CCOCC3)ccc1Oc1ccc(-c3cccnc3F)cc12 (stereo in doubt) [Example 9, 2-amino-2′-(3,6-dihydro-2H-pyran-4-yl)-7′-(2-fluoropyridin-3-yl)-1-methylspiro[imidazole-4,9′-xanthen]-5(1H)-one] | 0.9 nM | 3.6 nM | 
11 | CN1C(=O)C[C@@]2(N=C1N)c1cc(-c3cccnc3F)ccc1Oc1cnc(C3=CCCOC3)cc12 [Example 25, (R)-2′-amino-3-(5,6-dihydro-2H-pyran-3-yl)-7-(2-fluoropyridin-3-yl)-1′-methyl-1′H-spiro[chromeno[2,3-c]pyridine-5,4′-pyrimidin]-6′(5′H)-one] | 2430 nM | 6170 nM | 
12 | CN1C(=O)[C@]2(N=C1N)c1cc(-c3cccc(Cl)c3)ccc1Oc1c(F)cc(C3=CCOCC3)cc12 [Example 34, (4S)-2-amino-7′-(3-chlorophenyl)-2′-(3,6-dihydro-2H-pyran-4-yl)-4′-fluoro-1-methylspiro[imidazole-4,9′-xanthen]-5(1H)-one] | 0.3 nM | 9.9 nM | 
13 | CN1C(=O)[C@@]2(N=C1N)c1cc(-c3cccc(Cl)c3)ccc1Oc1c(F)cc(C3=CCOCC3)cc12 [Example 35, (4R)-2-amino-7′-(3-chlorophenyl)-2′-(3,6-dihydro-2H-pyran-4-yl)-4′-fluoro-1-methylspiro[imidazole-4,9′-xanthen]-5(1H)-one] | 24.3 nM | 1820 nM | 
14 | CN1C(=N)NC2(CC1=O)c1cc(-c3cccnc3F)ccc1Oc1cnc(-c3cccnc3F)cc12 (stereo not shown) [Example 21, 3,7-bis(2-fluoropyridin-3-yl)-2′-imino-1′-methyl-2′,3′-dihydro-1′H-spiro[chromeno[2,3-c]pyridine-5,4′-pyrimidin]-6′(5′H)-one] | 48.3 nM | 426 nM | 
15 | C[C@@]1(c2cc(-c3cncnc3)c(F)cc2F)CCSC(N)=N1 [LY2811376, (S)-4-(2,4-difluoro-5-pyrimidin-5-yl-phenyl)-4-methyl-5,6-dihydro-4H-[1,3]thiazin-2-ylamine] |  |  | Aβ reductions in lumbar CSF (Aβ in lumbar CSF; after oral dosing of 30 or 90 mg): Prominent and long-lasting Aβ reductions; safety and tolerability (Aβ in lumbar CSF; healthy volunteers): safe and well tolerated; retinal toxicity finding [3]: ravaged the pigment epithelium of the rat's eye; Aβ-lowering effects in animals (Aβ): profound Aβ-lowering effects
16 | CN1C(=O)C[C@]2(N=C1N)c1cc(-c3cccnc3F)ccc1Oc1cnc(C3=CCOCC3)cc12 [Example 22, (S)-2′-amino-3-(3,6-dihydro-2H-pyran-4-yl)-7-(2-fluoropyridin-3-yl)-1′-methyl-1′H-spiro[chromeno[2,3-c]pyridine-5,4′-pyrimidin]-6′(5′H)-one] | 9.3 nM | 59.8 nM | 
17 | CN1C(=O)CC2(N=C1N)c1cc(-c3cccnc3F)ccc1Oc1c2cc(-c2cccnc2F)nc1F (stereo not shown) [Example 13, 2′-amino-1-fluoro-3,7-bis(2-fluoropyridin-3-yl)-1′-methyl-1′H-spiro[chromeno[2,3-c]pyridine-5,4′-pyrimidin]-6′(5′H)-one] | 22.8 nM | 154 nM | 
